Here are results for 5 molecules from patent US4221724A, “Antibiotic X-14766A” (Hoffmann-La Roche Inc., priority 1978, dated 1980).

The test system of data set [1] is Bacillus sp. TA ATCC 27860. The data set can be described thus: antibacterial activity, Minimum Inhibitory Concentration (Table 4). Type of data set: cell-based. The following applies: ATCC27860.
Data set [2] has as its system Bacillus subtilis Nrrl 558. The description is as above. In kind it is cell-based. The settings on record: NRRL558.
Data set [3] relates to Clostridium histolyticum 503-86. The experiment in a line: in vitro activity against anaerobic bacteria, two-fold serial broth dilution (Table 5). In kind it is cell-based. The settings on record: Hathewaya histolytica, 50386, trypticase soy broth, 37° C. overnight, read-out: Minimum Inhibitory Concentration. As to the method:
(§1) *Two-fold serial broth dilution tests were carried out using trypticase
(§2) soy broth (TSB, BBL) as the test medium. All tests were incubated at
(§3) 37° C. overnight under anaerobic conditions.
A general note: Dilution methods test growth across graded concentrations, often in twofold steps.

The test system of data set [4] is Clostridium septicum 503-34. The data set is described as above. In kind it is cell-based. The settings on record: 50334, trypticase soy broth, 37° C. overnight, read-out: Minimum Inhibitory Concentration. The method, then: as §1, §2, §3
Data set [5] has as its system Bacillus sp. E ATCC 27859. The data set can be described thus: antibacterial activity, Minimum Inhibitory Concentration (Table 4). Type of data set: cell-based. The following applies: ATCC27859.
The test system of data set [6] is rumen fluid (in vitro rumen fermentations). On the set-up: species or system bovine. The following applies: for Percent Production of Control Fermantations: Rate of Gas Production / Percent Production of Control Fermantations: Total VFA(%): rumen fluid, 240 min.
Data set [7] has as its system Treponema hyodysenteriae strain B78. The data set can be described thus: activity against Treponema hyodysenteriae, blood agar plate dilution MIC. In kind it is cell-based. The settings on record: 48 hours, 42° C., anaerobic, in µg/mL. The source says: (§4) Testing for activity against Treponema hyodysenteriae, a cause of swine dysentery consisted of inoculation of blood agar plates containing a series of two and fourfold dilutions of antibiotic X-14766A and ipronidazole, an agent used in the treatment of swine dysentery, with tenfold dilutions of each of the T. hyodysenteriae strains (H 78, H 140, H 179).

Data set [8] relates to Treponema hyodysenteriae strain B140. Described as above. In kind it is cell-based. The settings on record: 48 hours, 42° C., anaerobic, in µg/mL.
Description: as §4

Data set [9] relates to Treponema hyodysenteriae strain B179. The data set is described as above. The settings on record: Steers inoculation, 48 hours, 42° C., anaerobic, in µg/mL. Type of data set: cell-based.
Description: as §4

The subject of data set [10] is Staphylococcus aureus ATCC 6538P. The data set can be described thus: antibacterial activity, Minimum Inhibitory Concentration (Table 4). Type of data set: cell-based. The settings on record: ATCC6538P.
Data set [11] relates to Mycobacterium phlei ATCC 355. Described as above. In kind it is cell-based. The following applies: Mycolicibacterium phlei, ATCC355.
For data set [12], the system named is Sarcina lutea ATCC 9341. The data set is described as above. In kind it is cell-based. The following applies: Micrococcus luteus, ATCC9341.
For data set [13], the system named is Streptomyces cellulosae ATCC 3313. Described as above. Type of data set: cell-based. The following applies: ATCC3313.
The subject of data set [14] is Bacillus megaterium ATCC 8011. Described as above. The settings on record: Priestia megaterium, ATCC8011. In kind it is cell-based.
Data set [15] relates to Bacteroides fragilis ATCC 12290. The data set can be described thus: in vitro activity against anaerobic bacteria, two-fold serial broth dilution (Table 5). The settings on record: ATCC12290, trypticase soy broth, 37° C. overnight, read-out: Minimum Inhibitory Concentration. In kind it is cell-based.
Data set [16] deals with Plasmodium bergei. The data set can be described thus: antimalarial activity against Plasmodium bergei in mice. Type of data set: in vivo.
Data set [17] in a line: toxicity (LD50) in mice. The settings on record: mouse, in vivo.

Values after ≈ are worked out from the molar mass of the structure shown. Values joined by “and” are separate entries in the source; they are usually repeats but may differ in a detail not shown here. Equal values may be shown once.

In general, ED50 refers to the midpoint of the dose-response relation. High values mean a need for a large dose, low ones an effect at a small dose. The term LD50 denotes the dose at which mortality reaches 50%. For the molecule `CCOC(=O)C1OC(C2(C)OC3(OC4(C=CC3O)OC(C(C)C(=O)C(C)C(O)C(C)CC(C)c3c(Cl)cc(C)c(O)c3C(=O)O)C(C)CC4C)C(C)C2OC)CC1O` (centres unmarked) [Antibiotic X-14766A], the MIC in [1] was 0.08 µg/mL (≈ 0.0953 µM); in data set [2], 0.2 µg/mL (≈ 0.238 µM); in data set [3] it was 0.0098 µg/mL (≈ 0.0117 µM); in [4] it was 0.0098 µg/mL (≈ 0.0117 µM); in [5] it was 0.04 µg/mL (≈ 0.0477 µM); in data set [7] (Steers inoculation), < 0.04 and 0.02. In addition, the MIC in data set [7] (Syringe inoculation) is 0.02 and 0.04; in data set [8] (Steers inoculation), < 0.04 and 0.04; in data set [8] (Syringe inoculation) it was 0.02 and 0.04; in [9], < 0.04 and 0.02; in data set [10] it was 0.2 µg/mL (≈ 0.238 µM); in [11] it was 0.2 µg/mL (≈ 0.238 µM). Also, the MIC was found to be 0.2 µg/mL (≈ 0.238 µM) in [12], 0.2 µg/mL (≈ 0.238 µM) in data set [13], 0.08 µg/mL (≈ 0.0953 µM) in data set [14] and 0.195 µg/mL (≈ 0.232 µM) in data set [15]. Further, the “C3 /C2 + nC4” value in data set [6] was 0.501 and 0.488. Besides, in data set [6], the “Percent Production of Control Fermantations: Rate of Gas Production” value (“Percent Production … of Gas Production” for short) was 90% and 89%. The “Percent Production of Control Fermantations: Total VFA(%)” value (shortened to “Percent Production … Total VFA(%)”) in [6] was 150.1% and 138.7%. The same molecule returned an ED50 in [16] of 2.5 mg/kg. Besides, the LD50 in data set [17] (ip) was determined as 5.75 mg/kg; in data set [17] (po) it was 350 mg/kg.

For `CC(C)c1ncc([N+](=O)[O-])n1C` [Ipronidazole, ipronidazole, reference compound], the MIC in [7] (Steers inoculation) was 0.16 and 0.31; in [7] (Syringe inoculation) it was 0.63; in data set [8] (Steers inoculation) it was 0.16 and 0.31; in data set [8] (Syringe inoculation), 0.63; in [9] it was 0.16 and 0.31.

In the case of `CC[C@@]1([C@@H]2O[C@@H]([C@H]3O[C@@](O)(CO)[C@H](C)C[C@@H]3C)C[C@@H]2C)CC[C@H]([C@]2(C)CC[C@]3(C[C@H](O)[C@@H](C)[C@@H]([C@@H](C)[C@@H](OC)[C@H](C)C(=O)O)O3)O2)O1` [Monensin], in data set [6], the “C3 /C2 + nC4” value is 0.565 and 0.575; the “Percent Production … of Gas Production” value is 89% and 85%; the “Percent Production … Total VFA(%)” value was 105.3% and 110.7%.

For `CC[C@@H](C(=O)O)[C@@H]1O[C@@H]([C@@H](C)[C@H](O)[C@H](C)C(=O)[C@H](CC)[C@H]2O[C@]3(C=C[C@@H](O)[C@]4(CC[C@@](C)([C@H]5CC[C@](O)(CC)[C@H](C)O5)O4)O3)[C@H](C)C[C@@H]2C)[C@@H](C)C[C@@H]1C` [Narasin], in data set [6], the “C3 /C2 + nC4” value is 00.583 and 0.581; the “Percent Production … of Gas Production” value was 86% and 88%.

For the molecule `CCC(C(=O)O)C1CCC(C)C(C(C)C(O)C(C)C(=O)C(CC)C2OC3(C=CC(O)C4(CCC(C)(C5CCC(O)(CC)C(C)O5)O4)O3)C(C)CC2C)O1` (centres unmarked) [Salino], in [6], the “C3 /C2 + nC4” value was 0.497 and 0.512; the “Percent Production … of Gas Production” value was 83% and 90%; the “Percent Production … Total VFA(%)” value was 146.9% and 145.5%.
